Columns and labels:
Format in all cases: physicochemical
[1] = T1-relaxivity (r1) of Fe3+ versus Fe2+ complex at pH 7.4; conditions: for relaxivity r1: normalized to Fe concentration, Fe^2+ formed in situ with excess sodium ascorbate
Source text: FIG. 7 compares the relaxivity (r1; the Fe induced increase in T1 relaxation rate (R1) normalized to Fe concentration in mM) recorded for Fe^3+-CDTA-Ph-3,5-CF3 and Fe^2+-CDTA-Ph-3,5-CF3 at pH 7.4.
(§1) The term “relaxivity” as used herein, refers to the increase in either of the MR quantities 1/T1 or 1/T2 per millimolar (mM) concentration of paramagnetic ion or contrast agent, which quantities may be different if the contrast agent contains a multiplicity of paramagnetic ions, wherein T1 is the longitudinal or spin-lattice relaxation time, and T2 is the transverse or spin-spin relaxation time of water protons or other imaging or spectroscopic nuclei, including protons found in molecules other than water. Relaxivity is expressed in units of mM^−1s^−1.
FIG. 7 compares the relaxivity (r1; the Fe induced increase in T1 relaxation rate (R1) normalized to Fe concentration in mM) recorded for Fe^3+-CDTA-Ph-3,5-CF3 and Fe^2+-CDTA-Ph-3,5-CF3 at pH 7.4. The Fe^2+ complex was formed in situ by addition of excess sodium ascorbate. The r1 values for the Fe^3+ complex ([…] mM^−1s^−1) is 7.5-times greater than the sister Fe^2+ complex (2.8±0.003 mM^−1s^−1).

Cyclic voltammetry = conditions: 0.5 M KNO3, GC working, Ag/AgCl reference, Pt counter electrode
[2] = pH-potentiometric titration combined with EDTA competition assay; conditions: estimated
Experimental: The title compound was synthesized in situ by mixing the compound obtained in step 1 with 0.5 molar equiv. Fe2(SO4)3, (i.e., 1 molar equiv. Fe^3+). In one representative sample preparation, used for pH-potentiometry measurements, 7.2 mg (0.011 mmol) Ligand were mixed with 4.4 mg (0.011 mmol Fe) were mixed in 3.4 mL water (with 0.1 M NaCl), and the pH adjusted using 0.1 M NaOH. ESI-MS for [C22H22F6FeN3O7]^−: m/z [M^−]=609.1 (calc.); m/z=609.1(obsv.)
From the titration data (performed in combination with EDTA competition assay at pH 3), a log K=23.7 s estimated for Fe-CDTA-Ph-3,5-CF3.

[3] = T1-relaxivity (r1) as a function of pH
Source text: FIG. 5A compares the pH-dependence on T1-relaxivity (r1; the Fe induced increase in T1 relaxation rate (R1) normalized to Fe concentration in mM) for the structurally related Fe^3+ complexes Fe-CDTA-Ph-3,5-CF3 and Fe-PyCy2AI.
as §1
FIG. 5, Panel A, compares the pH-dependence on T1-relaxivity (r1; the Fe induced increase in T1 relaxation rate (R1) normalized to Fe concentration in mM) for the structurally related Fe^3+ complexes Fe-CDTA-Ph-3,5-CF3 and Fe-PyCy2AI.

| Compound | ratio of r1 Fe^3+ complex to Fe^2+ complex ([1]; pH 7.4) | relaxivity r1 ([1]; pH 7.4) | ratio of r1 Fe^3+ complex to Fe^2+ complex (heading of Example 5) ([1]; stated in heading) | oxidation and reduction waves, reversibility (Cyclic voltammetry; pH 3) | separation of oxidation and reduction waves (Cyclic voltammetry; pH 8) | log K (Fe^3+ complex stability) ([2]; pH-potentiometric titration in combination with EDTA competition assay at pH 3) | pKa ([2]; water, 0.1 m nacl, pH-potentiometric titration, 1 molar equiv. Fe^3+, read-out: pKa (deprotonation of ML to MLH−1)) | speciation at pH 7.4 ([3]; pH 7.4) | r1 (T1-relaxivity), comparison in words ([3]; pH 7.4, compared with Fe-PyC3A / Fe-PyCy2AI) | pKa ([3]; r1 vs pH, read-out: pKa of the Fe^3+ water co-ligand) |
| --- | --- | --- | --- | --- | --- | --- | --- | --- | --- | --- |
| O=C(O)CN(CC(=O)O)C1CCCCC1N(CC(=O)O)CC(=O)Nc1cc(C(F)(F)F)cc(C(F)(F)F)c1.[Fe+3] (centres unmarked) [Fe-CDTA-Ph-3,5-CF3] | 7.5 -times | 2.1 ± 0.11 mM⁻¹ s⁻¹ | 10 -fold | reversible oxidation and reduction waves | ~1 V | 23.7 | 4.9 | dominated by the monomeric complex | much greater | > 7.4 |
| O=C(O)CN(CC(=O)O)C1CCCCC1N(CC(=O)O)CC(=O)Nc1cc(C(F)(F)F)cc(C(F)(F)F)c1.[Fe+2] (centres unmarked) [Fe^2+-CDTA-Ph-3,5-CF3] | – | 2.8 ± 0.003 mM⁻¹ s⁻¹ | – | – | – | – | – | – | – | – |
